Source: article PMC8351955, “Targeting Mycobacterium tuberculosis response to environmental cues for the development of effective antitubercular drugs” (PLoS Biology, 2021)
Where two headings read alike, the source gives them in different places.

Assays:
CYP3A4/5 = assay: Human cytochrome P450 inhibition, 3A4/5; type: in vitro ADME; settings: read-out: % inhibition of CYP 3A4/5
[1] = Human liver microsomal stability; type: in vitro ADME; settings: human liver microsomes; read-out: half-life (t1/2) in human liver microsomes
[2] = test system: CDC1551(rv2390c′::GFP) reporter Mtb strain, response to high [Cl−]; assay: microbe, parasite or virus in culture; type: cell-based, Mycobacterium tuberculosis
CYP1A2 = molecular target: T1, CYP1A2 (Homo sapiens, UniProt P05177); assay: Human cytochrome P450 inhibition, 1A2; type: in vitro ADME; settings: read-out: % inhibition of CYP 1A2
T1 sequence (P05177 1-516): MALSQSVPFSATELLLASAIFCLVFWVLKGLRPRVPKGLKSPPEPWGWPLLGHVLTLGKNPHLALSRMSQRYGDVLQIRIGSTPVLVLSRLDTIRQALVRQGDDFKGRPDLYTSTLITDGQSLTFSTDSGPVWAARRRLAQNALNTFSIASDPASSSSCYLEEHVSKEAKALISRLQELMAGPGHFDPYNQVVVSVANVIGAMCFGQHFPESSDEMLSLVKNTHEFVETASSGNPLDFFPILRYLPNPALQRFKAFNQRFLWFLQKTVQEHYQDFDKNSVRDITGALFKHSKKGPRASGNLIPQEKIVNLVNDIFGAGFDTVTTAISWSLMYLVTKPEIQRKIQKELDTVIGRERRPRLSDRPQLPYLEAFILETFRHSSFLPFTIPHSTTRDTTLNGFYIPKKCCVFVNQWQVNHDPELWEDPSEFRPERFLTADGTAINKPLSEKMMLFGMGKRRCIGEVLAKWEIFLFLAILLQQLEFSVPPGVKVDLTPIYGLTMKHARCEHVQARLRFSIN
Description: Assays examining mouse and human liver microsomal stability, kinetic aqueous solubility, mouse and human plasma protein binding and stability, and human cytochrome P450 inhibition characteristics of the compounds were run by BioDuro (San Diego, CA), using standard protocols as previously described [37]. hERG inhibition assays were also performed by BioDuro.

CCSc1ncc(CN2CCN(c3nc4ccccc4o3)CC2)cn1 [C6, 2-(4-((2-(ethylthio)pyrimidin-5-yl)methyl)piperazin-1-yl)benzo[d]oxazole]
inhibition at 10 µM (CYP3A4/5): < 1%
half-life [1]: 37.6 min
NPA - rv2390c'::GFP, average ([2]; 0.0390625 µM, Fig 1C): 83.3%
NPA - rv2390c'::GFP, average ([2]; 0.078125 µM, Fig 1C): 86.0333%
NPA - rv2390c'::GFP, average ([2]; 0.15625 µM, Fig 1C): 80.7667%
NPA - rv2390c'::GFP, average ([2]; 0.3125 µM, Fig 1C): 92.0333%
NPA - rv2390c'::GFP, average ([2]; 0.625 µM, Fig 1C): 91.4667%
NPA - rv2390c'::GFP, average ([2]; 1.25 µM, Fig 1C): 105.667%
NPA - rv2390c'::GFP, average ([2]; 2.5 µM, Fig 1C): 116.333%
NPA - rv2390c'::GFP, average ([2]; 5 µM, Fig 1C): 113%
NPA - rv2390c'::GFP, average ([2]; 10 µM, Fig 1C): 126.667%
NPA - rv2390c'::GFP, average ([2]; 20 µM, Fig 1C): 131%
activity at 10 µM ([2]; Mycobacterium tuberculosis, 144 h, pH 6.4, […], DMSO positive control = 100%, read-out: Primary screen rv2390c'::GFP NPA%): 164%
activity at 10 µM ([2]; Mycobacterium tuberculosis, 144 h, 10 µM, pH 6.4, 250 mM NaCl, 6 days, read-out: rv2390c'::GFP validation assay NPA% at 10 µM compound): 127 ± 1.5%
activity at 20 µM ([2]; Mycobacterium tuberculosis, 144 h, 20 µM, pH 6.4, 250 mM NaCl, 6 days, read-out: rv2390c'::GFP validation assay NPA% at 20 µM compound): 131 ± 3.6%
AC50 ([2]; Mycobacterium tuberculosis, 144 h, pH 6.4, 250 mM NaCl, 6 days, Fig 1C, read-out: AC50 (activatory concentration, 50%), rv2390c′::GFP): 1.8 µM
inhibition at 10 µM (CYP1A2): < 1%
